Results reported in US20250236608A1, “EGFR INHIBITORS” (Blueprint Medicines Corporation, priority 2022, published 2025).
Where a name gives a salt, the structure may show the parent alone.

Tests used:
[1] = target: EGFR L858R (Homo sapiens (Human), UniProt P00533, L858R); assay: Biochemical EGFR inhibition assay, EGFR L858R; conditions: Caliper mobility shift; 1.0 mM ATP or ATP Km; read-out: Enz EGFR_L858R IC50
[2] = target: EGFR (d746-750) (Homo sapiens (Human), UniProt P00533, DEL746-750); assay: Biochemical EGFR inhibition assay, EGFR (d746-750); conditions: Caliper mobility shift; 1.0 mM ATP or ATP Km; read-out: Enz EGFR_Exon19-del746-750 IC50
Chain of EGFR (d746-750) (P00533 other isoform, or with tags, fused parts or gaps del 1-694/del 746-750 limits assumed): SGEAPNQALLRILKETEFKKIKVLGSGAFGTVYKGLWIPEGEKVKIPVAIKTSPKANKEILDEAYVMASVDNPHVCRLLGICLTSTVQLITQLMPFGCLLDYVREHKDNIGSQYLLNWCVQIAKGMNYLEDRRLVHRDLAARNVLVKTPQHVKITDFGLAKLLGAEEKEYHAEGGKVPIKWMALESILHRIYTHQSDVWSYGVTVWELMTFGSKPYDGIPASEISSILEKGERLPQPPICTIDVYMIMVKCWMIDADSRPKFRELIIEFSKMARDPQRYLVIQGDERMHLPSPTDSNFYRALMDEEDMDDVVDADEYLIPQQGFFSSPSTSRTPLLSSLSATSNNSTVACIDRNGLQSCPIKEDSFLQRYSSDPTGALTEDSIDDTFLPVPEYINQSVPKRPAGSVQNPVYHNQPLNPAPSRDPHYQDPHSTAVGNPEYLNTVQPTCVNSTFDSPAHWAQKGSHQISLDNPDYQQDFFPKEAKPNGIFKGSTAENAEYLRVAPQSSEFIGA

[3] = target: pEGFR (Tyr1068) in PC-9 cells (Ex19Del) (Homo sapiens (Human), UniProt P00533, DEL746-750); assay: PC-9 pEGFR AlphaLISA assay; assay type: cell-based; conditions: 4 hours incubation, p-EGFR (Tyr1068) AlphaLISA, read-out: Ext pEGFR_PC-9 Ex19Del IC50
Chain of pEGFR (Tyr1068) in PC-9 cells (Ex19Del) (P00533 other isoform, or with tags, fused parts or gaps del 746-750): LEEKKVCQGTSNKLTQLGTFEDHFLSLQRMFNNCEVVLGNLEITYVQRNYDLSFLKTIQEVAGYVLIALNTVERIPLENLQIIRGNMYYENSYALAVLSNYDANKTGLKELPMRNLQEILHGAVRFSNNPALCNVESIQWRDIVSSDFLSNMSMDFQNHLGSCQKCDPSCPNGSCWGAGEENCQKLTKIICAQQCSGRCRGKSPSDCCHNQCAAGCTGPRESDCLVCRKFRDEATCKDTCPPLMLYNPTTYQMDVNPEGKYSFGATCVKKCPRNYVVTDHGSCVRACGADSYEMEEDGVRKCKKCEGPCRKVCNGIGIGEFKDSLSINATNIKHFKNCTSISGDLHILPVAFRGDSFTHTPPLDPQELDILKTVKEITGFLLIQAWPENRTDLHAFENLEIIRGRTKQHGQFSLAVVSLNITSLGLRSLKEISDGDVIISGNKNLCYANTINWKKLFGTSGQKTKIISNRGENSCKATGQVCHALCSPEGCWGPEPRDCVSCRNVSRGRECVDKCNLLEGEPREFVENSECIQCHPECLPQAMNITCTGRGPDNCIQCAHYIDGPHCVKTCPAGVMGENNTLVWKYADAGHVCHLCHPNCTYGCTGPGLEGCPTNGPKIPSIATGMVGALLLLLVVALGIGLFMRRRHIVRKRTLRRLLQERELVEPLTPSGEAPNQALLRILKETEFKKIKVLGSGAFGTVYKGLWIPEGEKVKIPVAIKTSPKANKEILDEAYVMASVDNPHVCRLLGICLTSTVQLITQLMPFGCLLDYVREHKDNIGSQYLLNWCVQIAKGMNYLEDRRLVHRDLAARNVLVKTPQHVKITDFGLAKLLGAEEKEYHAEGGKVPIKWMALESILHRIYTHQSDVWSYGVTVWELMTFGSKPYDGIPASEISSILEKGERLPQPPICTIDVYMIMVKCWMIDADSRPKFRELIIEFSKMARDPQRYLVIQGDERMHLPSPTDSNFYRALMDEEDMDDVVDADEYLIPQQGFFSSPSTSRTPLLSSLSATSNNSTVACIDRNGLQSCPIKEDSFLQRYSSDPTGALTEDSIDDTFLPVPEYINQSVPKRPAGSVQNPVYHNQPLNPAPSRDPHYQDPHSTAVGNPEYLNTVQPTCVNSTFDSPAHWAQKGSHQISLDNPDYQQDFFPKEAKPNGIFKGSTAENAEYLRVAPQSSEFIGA
Method in brief: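 Phospho-EGFR (Tyr1068) was quantified by AlphaLISA SureFire Ultra in lysates of PC-9 cells exposed for 4 h to compound (4-fold, 10-point dilutions).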

Chain of EGFR L858R (P00533 25-1210 L858R): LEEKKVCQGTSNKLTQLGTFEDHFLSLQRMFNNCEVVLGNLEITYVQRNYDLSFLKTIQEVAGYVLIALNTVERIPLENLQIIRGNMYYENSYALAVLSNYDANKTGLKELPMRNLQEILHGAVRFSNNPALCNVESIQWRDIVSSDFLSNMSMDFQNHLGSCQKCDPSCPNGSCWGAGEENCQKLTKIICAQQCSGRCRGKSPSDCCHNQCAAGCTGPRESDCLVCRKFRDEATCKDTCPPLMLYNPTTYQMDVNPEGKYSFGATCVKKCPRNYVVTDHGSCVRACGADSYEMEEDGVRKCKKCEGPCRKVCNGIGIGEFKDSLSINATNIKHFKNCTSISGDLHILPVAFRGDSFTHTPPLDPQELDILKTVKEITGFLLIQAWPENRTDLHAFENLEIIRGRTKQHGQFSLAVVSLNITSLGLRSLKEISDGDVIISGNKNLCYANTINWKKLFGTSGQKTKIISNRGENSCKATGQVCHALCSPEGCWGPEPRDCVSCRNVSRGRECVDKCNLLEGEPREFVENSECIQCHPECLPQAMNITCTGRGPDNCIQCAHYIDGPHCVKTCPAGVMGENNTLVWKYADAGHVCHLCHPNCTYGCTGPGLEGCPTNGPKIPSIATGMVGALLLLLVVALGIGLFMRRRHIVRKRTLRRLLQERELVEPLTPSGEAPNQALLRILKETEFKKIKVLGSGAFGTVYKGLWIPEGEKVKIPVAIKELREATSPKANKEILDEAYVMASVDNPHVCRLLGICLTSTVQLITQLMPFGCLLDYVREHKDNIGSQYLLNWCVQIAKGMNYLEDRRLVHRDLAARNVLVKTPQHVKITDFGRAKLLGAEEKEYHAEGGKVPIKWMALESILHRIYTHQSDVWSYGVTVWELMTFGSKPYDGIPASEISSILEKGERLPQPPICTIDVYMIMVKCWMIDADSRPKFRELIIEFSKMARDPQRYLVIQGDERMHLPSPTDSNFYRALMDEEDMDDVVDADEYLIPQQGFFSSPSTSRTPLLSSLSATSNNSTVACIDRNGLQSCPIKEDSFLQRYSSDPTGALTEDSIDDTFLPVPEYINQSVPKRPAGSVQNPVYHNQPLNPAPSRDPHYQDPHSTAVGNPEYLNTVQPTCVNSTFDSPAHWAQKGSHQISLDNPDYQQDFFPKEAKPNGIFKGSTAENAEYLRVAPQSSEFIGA

| Structure (SMILES) | IC50 [1] | IC50 [2] | IC50 [3] |
| --- | --- | --- | --- |
| COc1cc2ncnc(-c3cn(C)nc3-c3ccccc3)c2c(F)c1NC(=O)C1CCC1 [Example 295, N-(5-fluoro-7-methoxy-4-(1-methyl-3-phenyl-1H-pyrazol-4-yl)quinazolin-6-yl)cyclobutanecarboxamide] | 4.6 nM | 2.1 nM | 5.3 nM |
| [2H]C([2H])([2H])N1CCN(C(=O)Oc2cc3c(-c4cn(C)nc4-c4ccccc4)ncnc3cc2OC)[C@@H](C)C1 [Example 93, 7-methoxy-4-(1-methyl-3-phenyl-1H-pyrazol-4-yl)quinazolin-6-yl(S)-2-methyl-4-(methyl-d3) piperazine-1-carboxylate] | 4.3 nM | 2.5 nM | 4.3 nM |
| COc1cc2ncnc(-c3cn(C)nc3-c3ccccc3)c2cc1N [Preparation 190] | 1.3 nM | 0.8 nM | 5.4 nM |
| COc1cc2ncnc(-c3cn(C)nc3-c3ccccc3F)c2cc1NC(=O)[C@@]12C[C@@H]1CN(C)C2 (single isomer, unassigned) [Example 254, (1S,5S)—N-(4-(3-(2-fluorophenyl)-1-methyl-1H-pyrazol-4-yl)-7-methoxyquinazolin-6-yl)-3-methyl-3-azabicyclo[3.1.0]hexane-1-carboxamide or (1R,5R)—N-(4-(3-(2-fluorophenyl)-1-methyl-1H-pyrazol-4-yl)-7-methoxyquinazolin-6-yl)-3-methyl-3-azabicyclo[3.1.0]hexane-1-carboxamide] | 2.1 nM | 0.8 nM | 2.5 nM |
| COc1cc2ncnc(-c3cn(C)nc3-c3ccccc3)c2cc1NC(=O)c1ccc(C(F)F)nc1 [Example 352, 6-(difluoromethyl)-N-(7-methoxy-4-(1-methyl-3-phenyl-1H-pyrazol-4-yl)quinazolin-6-yl)nicotinamide] | 3.6 nM | 1.7 nM | 4.9 nM |
| Cn1cc(-c2ccc3c(-c4c[nH]nc4-c4cc(F)ccc4F)ncnc3c2)cn1 [Example 444, 4-(3-(2,5-difluorophenyl)-1H-pyrazol-4-yl)-7-(1-methyl-1H-pyrazol-4-yl)quinazoline] | 0.5 nM | 0.4 nM | 0.5 nM |
| CCc1ccc(-c2cc3c(-c4cn(C)nc4-c4ccccc4)ncnc3cc2OC)c2c[nH]nc12 [Example 472, 6-(7-ethyl-2H-indazol-4-yl)-7-methoxy-4-(1-methyl-3-phenyl-1H-pyrazol-4-yl)quinazoline] | 7.6 nM | 1.9 nM | 2.7 nM |
| CCn1cc(-c2ncnc3cc(OC)c(N4CCOCC4)cc23)c(-c2ccc(F)cc2)n1 [Example 171, 4-(4-(1-ethyl-3-(4-fluorophenyl)-1H-pyrazol-4-yl)-7-methoxyquinazolin-6-yl)morpholine] | 5.2 nM | 2.9 nM | 4.8 nM |
| Cn1cc(-c2ncnc3cc(OC(F)F)c(NC(=O)C4(C(F)(F)F)CC4)nc23)c(-c2ccccc2)n1 [Example 465, N-(7-(difluoromethoxy)-4-(1-methyl-3-phenyl-1H-pyrazol-4-yl)pyrido[3,2-d]pyrimidin-6-yl)-1-(trifluoromethyl)cyclopropane-1-carboxamide] | 4.9 nM | 0.8 nM | 3.5 nM |
| COc1cc2ncnc(-c3cn(C)nc3-c3ccccc3)c2cc1NC(=O)C(C)(C)F [Example 350, 2-fluoro-N-(7-methoxy-4-(1-methyl-3-phenyl-1H-pyrazol-4-yl)quinazolin-6-yl)-2-methylpropanamide] | 3.1 nM | 1.5 nM | 4.4 nM |
| COC(=O)Nc1cc2c(-c3cn(C)nc3-c3ccccc3)ncnc2cc1OC [Example 157, methyl (7-methoxy-4-(1-methyl-3-phenyl-1H-pyrazol-4-yl)quinazolin-6-yl)carbamate] | 1 nM | 0.6 nM | 1 nM |
| CCOc1cc2ncnc(-c3cn(C)nc3-c3ccccc3)c2cc1OC(=O)N1CCO[C@H](C)C1 [Example 73, 7-ethoxy-4-(1-methyl-3-phenyl-1H-pyrazol-4-yl)quinazolin-6-yl (R)-2-methylmorpholine-4-carboxylate] | 2.9 nM | 1.6 nM | 11.1 nM |
| CCOc1cc2ncnc(-c3cn(C)nc3-c3ccccc3)c2cc1N1CCN(C)C[C@@H]1C [Example 174, (S)-6-(2,4-dimethylpiperazin-1-yl)-7-ethoxy-4-(1-methyl-3-phenyl-1H-pyrazol-4-yl)quinazoline] | 2.8 nM | 2.3 nM | 3.4 nM |
| CCOc1cc2ncnc(-c3cn(C)nc3-c3ccccc3)c2cc1NC(=O)[C@@]12COC[C@@H]1C2 [Example 290, (1R,5R)—N-(7-ethoxy-4-(1-methyl-3-phenyl-1H-pyrazol-4-yl)quinazolin-6-yl)-3-oxabicyclo[3.1.0]hexane-1-carboxamide] | 1.3 nM | 0.9 nM | 1.5 nM |
| COc1cc2ncnc(-c3cn(C)nc3-c3ccc(F)cc3)c2nc1NC(=O)[C@]12CN(C)C[C@H]1C2(F)F (single isomer, unassigned) [Example 425, (1R,5S)-6,6-difluoro-N-(4-(3-(4-fluorophenyl)-1-methyl-1H-pyrazol-4-yl)-7-methoxypyrido[3,2-d]pyrimidin-6-yl)-3-methyl-3-azabicyclo[3.1.0]hexane-1-carboxamide or (1S,5R)-6,6-difluoro-N-(4-(3-(4-fluorophenyl)-1-methyl-1H-pyrazol-4-yl)-7-methoxypyrido[3,2-d]pyrimidin-6-yl)-3-methyl-3-azabicyclo[3.1.0]hexane-1-carboxamide] | 2.8 nM | 1 nM | 0.8 nM |
| COc1cc2ncnc(-c3cn(C)nc3-c3ccccc3)c2cc1OC(=O)N1CCN(C)[C@H]2C[C@H]21 (racemic) [Example 82, Cis-rac-7-methoxy-4-(1-methyl-3-phenyl-1H-pyrazol-4-yl)quinazolin-6-yl (1R,6S)-5-methyl-2,5-diazabicyclo[4.1.0]heptane-2-carboxylate] | 5.3 nM | 3.3 nM | 3.9 nM |
| CCn1cc([C@H](C)Oc2nc3c(-c4cn(C)nc4-c4ccccc4)ncnc3cc2OC)nn1 [Example 36, (S)-6-(1-(1-ethyl-1H-1,2,3-triazol-4-yl)ethoxy)-7-methoxy-4-(1-methyl-3-phenyl-1H-pyrazol-4-yl)pyrido[3,2-d]pyrimidine] | 9.7 nM | 3.2 nM | 14 nM |
| COc1cc2ncnc(-c3cn(C)nc3-c3ccccc3)c2cc1NC(=O)[C@H](C)N(C)C (single isomer, unassigned) [Example 237, (R)-2-(dimethylamino)-N-(7-methoxy-4-(1-methyl-3-phenyl-1H-pyrazol-4-yl)quinazolin-6-yl) propenamide or (S)-2-(dimethylamino)-N-(7-methoxy-4-(1-methyl-3-phenyl-1H-pyrazol-4-yl)quinazolin-6-yl) propenamide] | 5.4 nM | 2 nM | 6.6 nM |
| COc1cc2ncnc(-c3cn(CC(F)F)nc3-c3ccccc3)c2cc1[C@@H](C)O (single isomer, unassigned) [Example 102, (R)-1-(4-(1-(2,2-difluoroethyl)-3-phenyl-1H-pyrazol-4-yl)-7-methoxyquinazolin-6-yl)ethan-1-ol or (S)-1-(4-(1-(2,2-difluoroethyl)-3-phenyl-1H-pyrazol-4-yl)-7-methoxyquinazolin-6-yl)ethan-1-ol] | 2 nM | 1.2 nM | 4.1 nM |
| CCn1cc(-c2ncnc3cc(OC)c(NC(=O)c4cnn(CCN(C)C)c4)nc23)c(-c2ccccc2)n1 [Example 319, 1-(2-(dimethylamino)ethyl)-N-(4-(1-ethyl-3-phenyl-1H-pyrazol-4-yl)-7-methoxypyrido[3,2-d]pyrimidin-6-yl)-1H-pyrazole-4-carboxamide] | 1.1 nM | 0.7 nM | 0.4 nM |
| CCOc1cc2ncnc(-c3cn(C4CC4)nc3-c3ccccc3)c2cc1CO [Example 135, (4-(1-cyclopropyl-3-phenyl-1H-pyrazol-4-yl)-7-ethoxyquinazolin-6-yl)methanol] | 1.2 nM | 0.7 nM | 3.1 nM |
| COc1cc2ncnc(-c3cn(C)nc3-c3ccccc3)c2nc1OC(C)c1cocn1 (stereo not drawn) [Example 28, 4-(1-((7-methoxy-4-(1-methyl-3-phenyl-1H-pyrazol-4-yl)pyrido[3,2-d]pyrimidin-6-yl)oxy)ethyl)oxazole] | 1.2 nM | 0.9 nM | 0.7 nM |
| COc1cc2ncnc(-c3cn(C)nc3-c3ccccc3)c2cc1NC(=O)C12CC(N(C)C)(C1)C2 [Example 341, 3-(dimethylamino)-N-(7-methoxy-4-(1-methyl-3-phenyl-1H-pyrazol-4-yl)quinazolin-6-yl)bicyclo[1.1.1]pentane-1-carboxamide trifluoroacetate] | 6.4 nM | 3 nM | 8.3 nM |
| COc1cc2ncnc(-c3cn(C)nc3-c3ccccc3)c2nc1-c1cccc2c1OCC(=O)N2 [Example 154, 8-(7-methoxy-4-(1-methyl-3-phenyl-1H-pyrazol-4-yl)pyrido[3,2-d]pyrimidin-6-yl)-2H-benzo[b][1,4]oxazin-3(4H)-one] | 3.8 nM | 1.1 nM | 13 nM |
